We go through four compounds from patent US7605280B2, “Anthraquinone and its derivatives” (Biostatus Limited, priority 1998, dated 2009).

Read-outs that look alike come from different tables or passages of the source.

The conditions of data set [1]: previously published spectra, normalised; cited from earlier work.
Data set [2] has as its system human B cell lymphoma cell line. The data set is described as follows: Dual laser flow cytometry of DRAQ5NO with Annexin V-FITC (Cytometer D). The following applies: 50 μM DRAQ5NO, 633 nm excitation, FL4-H. It counts as cell-based. An excerpt: The system was a FACS Vantage cell sorter (Becton Dickinson Inc., Cowley, UK) incorporating a Coherent Enterprise II laser simultaneously emitting at multiline UV (350-360 nm range) and 488 nm wavelengths with the beams made non-colinear using dichroic separators. Beam-combining optics were used to align the UV beam with that emitted by a Spectra Physics 127-35 helium-neon laser (max 35 mW output) emitting at 633 nm with a temporal separation of about 25 μsec from that of the primary 488 nm beam. Forward light scatter, 90° light scatter and fluorescence emissions were collected for 1×10^4 cells using the forward light scatter parameter as the master signal from the primary 488 nm beam, while side scatter was collected through a 488/10 nm bandpass filter. The analysis optics were: i) primary beam-originating signals analysed at FL1 (FITC filter; barrier filter of 530/30 nm) after transmission at SP610 and SP560 dichroics, or at FL2 (barrier filters of 585/42 nm or 575/26 nm) after transmission at SP610 and reflection at SP560 dichroics, or at FL3 (barrier filter of LP715 nm) after reflection at a SP610 dichroic; ii) delayed beam-originating signals analysed at FL4 (barrier filter of LP695 nm) or at FL5 (barrier filter of DF424/44 nm) after transmission or reflection at a LP640 dichroic respectively. Forward and 90° light scatter, were analysed to exclude any cell debris. […]
(In general: In flow cytometry, cells or beads pass a laser one at a time.)

Data set [3] can be described thus: Spectral analysis: absorbance and fluorescence spectra. In kind it is physicochemical. The note with it: DNA binding buffer, emission 530 nm. The protocol: Absorbance spectra were obtained using a Perkin-Elmer Lambda 16 UV spectrometer and a 10 μM solution of agent dissolved in dichloromethane and measured in a 1 cm path length quartz-silica cuvette. Fluorescence spectra for a 0.8 ml solution of 20 μM DRAQ5 in a 1 cm path length semi-micro quartz silica cuvette were determined by exciting at 647 nm wavelength or monitoring emission at 670 nm wavelength. Fluorescence measurements were made on a Perkin Elmer LS50 spectrofluorometer with slit widths set at 10 nm. The spectrofluorometer was equipped with a red-sensitive photomultiplier tube (PMT; type R928; Hamamatsu Photonics KK, Japan). Data were accumulated for four scans for each condition and exported into a spreadsheet program to correct values for the buffer control and to determine emission maxima. DNA-DRAQ5 fluorescence was measured by the addition of microlitre volumes of concentrated calf thymus DNA solutions to the cuvette with mixing. Both agent and DNA were prepared in DNA binding buffer (0.05 M sodium phosphate, pH 6.2, 0.05 M NaCl, 0.001 M EDTA; 3). The spectra shown were corrected for the buffer background and not for the spectral sensitivity of the PMT. Rhodamine 123 spectra were generated in DNA binding buffer using either 488/5 nm excitation or monitoring emission at 530/5 nm. […]

As for Texas Red, the Exλmax in data set [1] is listed as 596 nm.
Take `C[N+](C)([O-])CCNc1ccc(O)c2c1C(=O)c1c(O)ccc(NCC[N+](C)(C)[O-])c1C2=O` [DRAQ5N]: in data set [2], the “level of DRAQ5NO staining in stage 1 populations (intact viable cells)” value is reported as “low level” and the “level of DRAQ5NO staining in stage 3 cells (late stage apoptotic/dead cells)” value is “increased level”.
As to fluorescein isothiocyanate [FITC], the Exλmax in data set [1] is 490 nm.
The compound rhodamine 123 yielded an Exλmax in data set [3] of 511 nm.
